The results in this text go back to ChEMBL document CHEMBL3399967, “Design and discovery of 2-oxochromene derivatives as liver X receptor β-selective agonists” (Bioorg Med Chem Lett, 2015).

The subject of data set [1] is Hamster. Nature of the data set: Effect on HDL-C level in high-fat-and-cholesterol diet fed Male Bio F1B hamster plasma at 3 to 10 mg/kg, po relative to control. Format: functional, Cricetinae. As to conditions: dose mg/kg 3-10.
The test system of data set [2] is Hamster. Put plainly: Effect on total cholesterol level in high-fat-and-cholesterol diet fed Male Bio F1B hamster plasma at 3 mg/kg, po relative to control. The class given is functional, Cricetinae.
Data set [3] concerns Hamster. Put plainly: Effect on Plasma triglyceride level in high-fat-and-cholesterol diet fed Male Bio F1B hamster at 3 mg/kg, po relative to control. Particulars: cricetinae, in vivo. Format: organism-based. Also on record: dose 3 mg/kg, route oral.
Data set [4] relates to Hamster. Put plainly: Effect on area of lipid accumulation in high-fat-and-cholesterol diet fed Male Bio F1B hamster aortic arch at 3 mg/kg, po relative to control. Format: functional, Cricetinae.
Data set [5] has as its system Hamster. Nature of the data set: Effect on HDL-C level in high-fat-and-cholesterol diet fed Male Bio F1B hamster plasma at 10 mg/kg, po relative to control. The class given is functional, Cricetinae.
The test system of data set [6] is Hamster. Put plainly: Effect on total cholesterol level in high-fat-and-cholesterol diet fed Male Bio F1B hamster plasma at 10 mg/kg, po relative to control. The class given is functional, Cricetinae.
The test system of data set [7] is Hamster. Put plainly: Effect on Plasma triglyceride level in high-fat-and-cholesterol diet fed Male Bio F1B hamster at 10 mg/kg, po relative to control. Format: organism-based. Also on record: dose 10 mg/kg, route oral. As to conditions: cricetinae, in vivo.
The subject of data set [8] is Hamster. Nature of the data set: Effect on HDL-C level in high-fat-and-cholesterol diet fed Male Bio F1B hamster plasma at 3 mg/kg, po relative to control. The class given is functional, Cricetinae.
The subject of data set [9] is Hamster. Put plainly: Effect on area of lipid accumulation in high-fat-and-cholesterol diet fed Male Bio F1B hamster aortic arch at 10 mg/kg, po relative to control. The class given is functional, Cricetinae.
The subject of data set [10] is Hamster. Nature of the data set: Effect on Plasma triglyceride level in high-fat-and-cholesterol diet fed Male Bio F1B hamster at 3 to 10 mg/kg, po relative to control. Format: organism-based. Also on record: dose 3-10 mg/kg, route oral. Particulars: cricetinae, in vivo.

In the case of `O=S(=O)(c1ccccc1)N(CC(F)(F)F)c1ccc(C(O)(C(F)(F)F)C(F)(F)F)cc1` [T091317], the “fold change (FC)” value in data set [1] amounted to 3. Moreover, the Activity in [2] stood at 123%; in data set [3], 206%; in data set [4], 53%; in data set [5], 59%; in [6], 127%; in data set [7] it was 243%. Further, the Activity is given as 67% in data set [8], 52% in data set [9] and 50% in data set [10].
